Measured values from patent publication EP4810052A2, “HCRHR2 SELECTIVE POLYPEPTIDES” (Gubra A/S, priority 2023, dated 2026).
Read-outs that look alike come from different tables or passages of the source. Starred links: 1 amine or outer side, 2 acyl side, 3 side chain; linkers in the order of their positions; H or OH if unused. Non-standard residues stand in square brackets, D forms with d. Residues, ends and D or L forms follow the SMILES beside them. Groups on a side chain read outwards from the residue. *: point of attachment. C20 diacid = O=C(O)CCCCCCCCCCCCCCCCCCC(=O)*; Pro(4S-NH2) = N[C@@H]1CN[C@H](C(=O)O)C1; γGlu = O=C(O)[C@H](CCC(=O)[*:2])N[*:1]; Nle = CCCC[C@H](N)C(=O)O; Ac5c = NC1(C(=O)O)CCCC1; AEEA = NCCOCCOCC(=O)O

Columns and labels:
hCRHR2 = biological target: T1, hCRHR2 (Homo sapiens, UniProt Q13324); test: HTRF cAMP assay, determination of hCRHR2 potency (peptide libraries 5 conc., purified peptides 11 conc.); format: cell-based
T1 sequence (Q13324 1-411): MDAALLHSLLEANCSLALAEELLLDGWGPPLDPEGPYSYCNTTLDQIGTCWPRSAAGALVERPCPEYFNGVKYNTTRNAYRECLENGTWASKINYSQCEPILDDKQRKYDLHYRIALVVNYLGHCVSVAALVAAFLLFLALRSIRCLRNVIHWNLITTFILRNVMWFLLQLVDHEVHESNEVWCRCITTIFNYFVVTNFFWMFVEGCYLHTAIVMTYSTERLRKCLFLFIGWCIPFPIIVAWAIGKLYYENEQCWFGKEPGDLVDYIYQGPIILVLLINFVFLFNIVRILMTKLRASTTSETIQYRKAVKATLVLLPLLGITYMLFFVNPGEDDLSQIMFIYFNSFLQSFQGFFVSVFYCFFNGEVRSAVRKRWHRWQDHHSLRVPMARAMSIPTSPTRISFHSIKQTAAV
In short: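 CHO-K1 cells stably expressing human CRHR2, thawed from frozen stocks just before use and run in suspension; cAMP measured by competitive HTRF immunoassay (cryptate anti-cAMP, d2-cAMP). Agonist peptides tested at 5 (libraries) or 11 (purified) concentrations; EC50 from sigmoid variable-slope nonlinear regression.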

hCRHR1 = biological target: T2, hCRHR1 (Homo sapiens, UniProt P34998); test: HTRF cAMP assay, determination of hCRHR1 potency (peptide libraries 5 conc., purified peptides 11 conc.); format: cell-based
T2 sequence (P34998 24-415): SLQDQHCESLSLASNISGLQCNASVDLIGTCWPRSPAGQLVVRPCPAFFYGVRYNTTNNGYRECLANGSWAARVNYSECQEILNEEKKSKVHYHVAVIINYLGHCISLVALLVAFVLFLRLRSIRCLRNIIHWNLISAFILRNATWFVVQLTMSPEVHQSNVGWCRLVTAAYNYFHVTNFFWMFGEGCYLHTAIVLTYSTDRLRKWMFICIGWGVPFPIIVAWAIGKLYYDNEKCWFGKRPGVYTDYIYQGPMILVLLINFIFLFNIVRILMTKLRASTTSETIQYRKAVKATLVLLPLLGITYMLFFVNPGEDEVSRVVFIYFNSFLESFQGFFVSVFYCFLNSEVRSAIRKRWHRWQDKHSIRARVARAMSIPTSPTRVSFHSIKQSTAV
In short: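 CHO-K1 cells stably expressing human CRHR1, thawed from frozen stocks just before use, were stimulated in suspension with agonist peptides. cAMP was measured by HTRF competitive immunoassay (cryptate anti-cAMP antibody vs d2-cAMP).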

[1] = library peptides, matched molecular pairs L vs Nle in position X^38, read-out: Potency hCRHR2 pEC50 (converted)
[2] = library peptides, matched molecular pairs L vs Nle in position X^38, read-out: Potency hCRHR1 pEC50 (converted)

| EC50 (hCRHR2; [1]) | EC50 (hCRHR1; [2]) | EC50 (hCRHR2; Table 3, matched molecular pairs X^38 L vs Nle, peptide library of Example 4, read-out: hCRHR2 pEC50 (converted)) | EC50 (hCRHR1; Table 3, matched molecular pairs X^38 L vs Nle, peptide library of Example 4, read-out: hCRHR1 pEC50 (converted)) | Structure (SMILES) |
| --- | --- | --- | --- | --- |
| 2 nM | 158000 nM |  |  | CC[C@H](C)[C@H](N)C(=O)N[C@H](C(=O)N[C@@H](CC(C)C)C(=O)N[C@@H](CO)C(=O)N[C@@H](CC(C)C)C(=O)N[C@@H](CC(=O)O)C(=O)N[C@H](C(=O)N1CCC[C@H]1C(=O)N[C@H](C(=O)NCC(=O)N[C@@H](CC(C)C)C(=O)N[C@@H](CC(C)C)C(=O)N[C@@H](CCC(N)=O)C(=O)N[C@H](C(=O)N[C@@H](CC(C)C)C(=O)N[C@@H](CC(C)C)C(=O)N[C@@H](CCC(=O)O)C(=O)N[C@@H](CCC(N)=O)C(=O)N[C@@H](C)C(=O)N[C@@H](CCCNC(=N)N)C(=O)N[C@@H](C)C(=O)N[C@@H](CCCNC(=N)N)C(=O)N[C@@H](C)C(=O)N[C@@H](CC(C)C)C(=O)N[C@@H](CCCNC(=N)N)C(=O)N[C@@H](CCC(=O)O)C(=O)N[C@@H](CCC(=O)O)C(=O)N[C@@H](C)C(=O)N[C@@H](CCCCNC(=O)COCCOCCNC(=O)COCCOCCNC(=O)CC[C@H](NC(=O)CC[C@H](NC(=O)CCCCCCCCCCCCCCCCCCC(=O)O)C(=O)O)C(=O)O)C(=O)N[C@H](C(=O)N[C@@H](CC(N)=O)C(=O)N[C@@H](C)C(=O)N[C@@H](CCC(=O)O)C(=O)N[C@H](C(=O)N[C@@H](CC(C)C)C(=O)N[C@@H](C)C(=O)N[C@@H](CCC(=O)O)C(=O)N[C@H](C(N)=O)C(C)C)[C@@H](C)CC)[C@@H](C)O)[C@@H](C)CC)[C@@H](C)CC)C(C)C)C(C)C [compound 50] (H-IVLSLDVPIGLLQILLEQARARALREEAK([AEEA-AEEA-γGlu-γGlu-C20 diacid])TNAEILAEV-NH2) |
|  |  | 0.501 nM | 794 nM | CC[C@H](C)[C@H](N)C(=O)N[C@H](C(=O)N[C@@H](CC(C)C)C(=O)N[C@@H](CO)C(=O)N[C@@H](CC(C)C)C(=O)N[C@@H](CC(=O)O)C(=O)N[C@H](C(=O)N1CCC[C@H]1C(=O)N[C@H](C(=O)NCC(=O)N[C@@H](CC(C)C)C(=O)N[C@@H](CC(C)C)C(=O)N[C@@H](CCC(N)=O)C(=O)N[C@H](C(=O)N[C@@H](CC(C)C)C(=O)N[C@@H](CC(C)C)C(=O)N[C@@H](CCC(=O)O)C(=O)N[C@@H](CCC(N)=O)C(=O)N[C@@H](C)C(=O)N[C@@H](CCCNC(=N)N)C(=O)N[C@@H](C)C(=O)N[C@@H](CCCNC(=N)N)C(=O)N[C@@H](C)C(=O)N[C@@H](CC(C)C)C(=O)N[C@@H](CCCNC(=N)N)C(=O)N[C@@H](CCC(=O)O)C(=O)N[C@@H](CCC(N)=O)C(=O)N[C@@H](C)C(=O)N[C@@H](CCCCNC(=O)COCCOCCNC(=O)COCCOCCNC(=O)CC[C@H](NC(=O)CC[C@H](NC(=O)CCCCCCCCCCCCCCCCCCC(=O)O)C(=O)O)C(=O)O)C(=O)N[C@H](C(=O)N[C@@H](CC(N)=O)C(=O)N[C@@H](C)C(=O)N[C@@H](CCC(=O)O)C(=O)N[C@H](C(=O)N[C@@H](CC(C)C)C(=O)N[C@@H](C)C(=O)N[C@@H](CCC(=O)O)C(=O)N[C@H](C(N)=O)C(C)C)[C@@H](C)CC)[C@@H](C)O)[C@@H](C)CC)[C@@H](C)CC)C(C)C)C(C)C [SEQ ID NO: 39] (H-IVLSLDVPIGLLQILLEQARARALREQAK([AEEA-AEEA-γGlu-γGlu-C20 diacid])TNAEILAEV-NH2) |
| 0.501 nM | 3.16 nM |  |  | CCCC[C@H](NC(=O)[C@@H](NC(=O)[C@H](CCC(=O)O)NC(=O)[C@H](C)NC(=O)[C@H](CC(N)=O)NC(=O)[C@@H](NC(=O)[C@H](CCCCNC(=O)COCCOCCNC(=O)COCCOCCNC(=O)CC[C@H](NC(=O)CC[C@H](NC(=O)CCCCCCCCCCCCCCCCCCC(=O)O)C(=O)O)C(=O)O)NC(=O)[C@H](C)NC(=O)[C@H](CCC(N)=O)NC(=O)[C@H](CCC(=O)O)NC(=O)[C@H](CCCNC(=N)N)NC(=O)[C@H](C)NC(=O)[C@@H](NC(=O)[C@H](CCCNC(=N)N)NC(=O)[C@H](C)NC(=O)[C@H](CCCNC(=N)N)NC(=O)[C@H](C)NC(=O)[C@H](CCC(N)=O)NC(=O)[C@H](CCC(=O)O)NC(=O)[C@H](CC(C)C)NC(=O)[C@H](CC(C)C)NC(=O)[C@@H](NC(=O)[C@H](CCC(N)=O)NC(=O)[C@H](CC(C)C)NC(=O)[C@H](CC(C)C)NC(=O)CNC(=O)[C@@H](NC(=O)[C@@H]1C[C@H](N)CN1C(=O)[C@@H](NC(=O)[C@H](CC(=O)O)NC(=O)[C@H](CC(C)C)NC(=O)[C@H](CO)NC(=O)[C@H](CC(C)C)NC(=O)[C@@H](NC(=O)[C@@H](N)[C@@H](C)CC)C(C)C)C(C)C)[C@@H](C)CC)[C@@H](C)CC)C(C)C)[C@@H](C)O)[C@@H](C)CC)C(=O)N[C@@H](C)C(=O)N[C@@H](CCC(=O)O)C(=O)N[C@H](C(N)=O)C(C)C [compound 77] (H-IVLSLDV[Pro(4S-NH2)]IGLLQILLEQARARVAREQAK([AEEA-AEEA-γGlu-γGlu-C20 diacid])TNAEI[Nle]AEV-NH2) |
| 0.398 nM | 7.94 nM |  |  | CC[C@H](C)[C@H](N)C(=O)N[C@H](C(=O)N[C@@H](CC(C)C)C(=O)N[C@@H](CO)C(=O)N[C@@H](CC(C)C)C(=O)N[C@@H](CC(=O)O)C(=O)NC1(C(=O)N2CCC[C@H]2C(=O)N[C@H](C(=O)NCC(=O)N[C@@H](CC(C)C)C(=O)N[C@@H](CC(C)C)C(=O)N[C@@H](CCC(N)=O)C(=O)N[C@H](C(=O)N[C@@H](CC(C)C)C(=O)N[C@@H](CC(C)C)C(=O)N[C@@H](CCC(=O)O)C(=O)N[C@@H](CCC(N)=O)C(=O)N[C@@H](C)C(=O)N[C@@H](CCCNC(=N)N)C(=O)N[C@@H](C)C(=O)N[C@@H](CCCNC(=N)N)C(=O)N[C@@H](CCC(N)=O)C(=O)N[C@@H](C)C(=O)N[C@@H](CCCNC(=N)N)C(=O)N[C@@H](CCC(=O)O)C(=O)N[C@@H](CCC(N)=O)C(=O)N[C@@H](C)C(=O)N[C@@H](CCCCNC(=O)COCCOCCNC(=O)COCCOCCNC(=O)CC[C@H](NC(=O)CC[C@H](NC(=O)CCCCCCCCCCCCCCCCCCC(=O)O)C(=O)O)C(=O)O)C(=O)N[C@H](C(=O)N[C@@H](CC(N)=O)C(=O)N[C@@H](C)C(=O)N[C@@H](CCC(=O)O)C(=O)N[C@H](C(=O)N[C@@H](CC(C)C)C(=O)N[C@@H](C)C(=O)N[C@@H](CCC(=O)O)C(=O)N[C@H](C(N)=O)C(C)C)[C@@H](C)CC)[C@@H](C)O)[C@@H](C)CC)[C@@H](C)CC)CCCC1)C(C)C [compound 78] (H-IVLSLD[Ac5c]PIGLLQILLEQARARQAREQAK([AEEA-AEEA-γGlu-γGlu-C20 diacid])TNAEILAEV-NH2) |
| 0.631 nM | 100000 nM |  |  | CCCC[C@H](NC(=O)[C@@H](NC(=O)[C@H](CCC(=O)O)NC(=O)[C@H](C)NC(=O)[C@H](CC(N)=O)NC(=O)[C@@H](NC(=O)[C@H](CCCCNC(=O)COCCOCCNC(=O)COCCOCCNC(=O)CC[C@H](NC(=O)CC[C@H](NC(=O)CCCCCCCCCCCCCCCCCCC(=O)O)C(=O)O)C(=O)O)NC(=O)[C@H](C)NC(=O)[C@H](CCC(=O)O)NC(=O)[C@H](CCC(=O)O)NC(=O)[C@H](CCCNC(=N)N)NC(=O)[C@H](CCC(N)=O)NC(=O)[C@H](CO)NC(=O)[C@H](CCCNC(=N)N)NC(=O)[C@H](C)NC(=O)[C@H](CCCNC(=N)N)NC(=O)[C@H](C)NC(=O)[C@H](CCC(N)=O)NC(=O)[C@H](CCC(=O)O)NC(=O)[C@H](CC(C)C)NC(=O)[C@H](CC(C)C)NC(=O)[C@@H](NC(=O)[C@H](CCC(N)=O)NC(=O)[C@H](CC(C)C)NC(=O)[C@H](CC(C)C)NC(=O)CNC(=O)[C@@H](NC(=O)[C@@H]1CCCN1C(=O)[C@@H](NC(=O)[C@H](CC(=O)O)NC(=O)[C@H](CC(C)C)NC(=O)[C@H](CO)NC(=O)[C@H](CC(C)C)NC(=O)[C@@H](NC(=O)[C@@H](N)[C@@H](C)CC)C(C)C)C(C)C)[C@@H](C)CC)[C@@H](C)CC)[C@@H](C)O)[C@@H](C)CC)C(=O)N[C@@H](C)C(=O)N[C@@H](CCC(=O)O)C(=O)N[C@H](C(N)=O)C(C)C [compound 71] (H-IVLSLDVPIGLLQILLEQARARSQREEAK([AEEA-AEEA-γGlu-γGlu-C20 diacid])TNAEI[Nle]AEV-NH2) |
